From patent publication US20200239530A1, “COMPOUNDS AND METHODS OF MODULATING PROTEIN DEGRADATION” (Vividion Therapeutics, Inc., priority 2017, published 2020)
Where two headings read alike, the source gives them in different places. Blank lines part the entries; values can stand above or below the compound they belong to.

Key:
Assay in all cases: Cysteine liganding, probe competition
Format in all cases: binding
UniProt O60683 = molecular target: T1, UniProt O60683 (Homo sapiens, UniProt O60683)
T1 construct: 200 μL of lysate containing 5 mg/ml proteome was treated with 2 μL of 100× compound stock; endogenous in cells
T1 sequence (O60683 whole entry, change not shown): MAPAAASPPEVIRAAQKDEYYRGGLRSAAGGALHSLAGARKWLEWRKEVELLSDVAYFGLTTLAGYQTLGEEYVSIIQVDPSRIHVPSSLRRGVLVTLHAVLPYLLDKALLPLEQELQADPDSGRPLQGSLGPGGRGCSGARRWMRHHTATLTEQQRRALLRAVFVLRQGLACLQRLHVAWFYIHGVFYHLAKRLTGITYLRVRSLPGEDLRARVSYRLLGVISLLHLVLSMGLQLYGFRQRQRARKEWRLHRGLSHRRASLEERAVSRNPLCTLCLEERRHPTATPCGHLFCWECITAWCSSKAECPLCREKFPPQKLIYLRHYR
Excerpt: (§1) The following 96-well sample prep protocol was used for sample preparation.

UniProt O94972 = molecular target: T2, UniProt O94972 (Homo sapiens, UniProt O94972)
T2 construct: 200 μL of lysate containing 5 mg/ml proteome was treated with 2 μL of 100× compound stock; endogenous in cells
T2 sequence (O94972 whole entry, change not shown): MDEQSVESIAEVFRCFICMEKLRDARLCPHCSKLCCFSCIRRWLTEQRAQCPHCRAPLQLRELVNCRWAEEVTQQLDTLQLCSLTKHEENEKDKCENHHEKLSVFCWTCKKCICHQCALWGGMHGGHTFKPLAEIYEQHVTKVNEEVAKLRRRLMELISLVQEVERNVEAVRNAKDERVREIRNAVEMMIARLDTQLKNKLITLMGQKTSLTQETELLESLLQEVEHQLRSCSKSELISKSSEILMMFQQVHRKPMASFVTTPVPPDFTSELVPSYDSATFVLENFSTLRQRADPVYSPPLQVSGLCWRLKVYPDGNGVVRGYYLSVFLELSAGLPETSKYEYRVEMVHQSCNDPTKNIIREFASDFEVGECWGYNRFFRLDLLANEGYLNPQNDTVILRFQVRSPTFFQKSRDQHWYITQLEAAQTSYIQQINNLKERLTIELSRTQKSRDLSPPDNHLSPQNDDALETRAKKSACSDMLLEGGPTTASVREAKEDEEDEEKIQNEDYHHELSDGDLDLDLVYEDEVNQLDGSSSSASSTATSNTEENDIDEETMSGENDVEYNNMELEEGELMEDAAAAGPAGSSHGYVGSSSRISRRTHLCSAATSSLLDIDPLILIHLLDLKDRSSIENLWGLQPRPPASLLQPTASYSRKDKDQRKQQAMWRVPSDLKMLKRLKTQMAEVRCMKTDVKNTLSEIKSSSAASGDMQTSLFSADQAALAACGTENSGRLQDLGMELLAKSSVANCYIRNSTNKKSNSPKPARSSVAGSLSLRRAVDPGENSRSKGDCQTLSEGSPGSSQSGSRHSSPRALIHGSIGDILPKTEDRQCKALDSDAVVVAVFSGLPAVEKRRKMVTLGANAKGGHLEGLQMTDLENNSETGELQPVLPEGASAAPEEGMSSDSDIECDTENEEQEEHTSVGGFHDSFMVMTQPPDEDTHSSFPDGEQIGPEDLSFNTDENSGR
Excerpt: as §1

UniProt Q6IQ16 = molecular target: T3, UniProt Q6IQ16 (Homo sapiens, UniProt Q6IQ16)
T3 construct: 200 μL of lysate containing 5 mg/ml proteome was treated with 2 μL of 100× compound stock; endogenous in cells
T3 sequence (Q6IQ16 1-392): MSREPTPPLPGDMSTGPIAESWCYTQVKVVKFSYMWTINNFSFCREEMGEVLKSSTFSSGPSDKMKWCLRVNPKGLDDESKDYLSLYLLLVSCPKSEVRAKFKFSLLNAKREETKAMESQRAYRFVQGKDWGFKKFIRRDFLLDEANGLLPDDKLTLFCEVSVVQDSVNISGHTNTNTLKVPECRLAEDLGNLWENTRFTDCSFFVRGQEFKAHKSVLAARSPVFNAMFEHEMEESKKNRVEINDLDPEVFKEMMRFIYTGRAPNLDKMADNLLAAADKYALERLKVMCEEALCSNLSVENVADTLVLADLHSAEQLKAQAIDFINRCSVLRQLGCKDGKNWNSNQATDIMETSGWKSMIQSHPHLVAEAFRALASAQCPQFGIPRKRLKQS
Excerpt: as §1

UniProt Q6ZMU5 = molecular target: T4, UniProt Q6ZMU5 (Homo sapiens, UniProt Q6ZMU5)
T4 construct: 200 μL of lysate containing 5 mg/ml proteome was treated with 2 μL of 100× compound stock; endogenous in cells
T4 sequence (Q6ZMU5 1-477): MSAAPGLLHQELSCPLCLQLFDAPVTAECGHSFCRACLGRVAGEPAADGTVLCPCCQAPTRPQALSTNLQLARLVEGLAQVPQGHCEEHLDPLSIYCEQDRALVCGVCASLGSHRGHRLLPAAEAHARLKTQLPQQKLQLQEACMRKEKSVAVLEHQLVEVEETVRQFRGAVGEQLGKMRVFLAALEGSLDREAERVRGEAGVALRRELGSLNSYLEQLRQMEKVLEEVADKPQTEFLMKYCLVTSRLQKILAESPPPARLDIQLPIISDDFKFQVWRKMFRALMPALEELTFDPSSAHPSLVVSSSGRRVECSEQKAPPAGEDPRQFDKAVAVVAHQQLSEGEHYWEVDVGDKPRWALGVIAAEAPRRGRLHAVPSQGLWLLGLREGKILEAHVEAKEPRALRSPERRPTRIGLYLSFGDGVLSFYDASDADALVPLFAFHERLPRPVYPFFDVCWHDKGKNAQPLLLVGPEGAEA
Excerpt: as §1

UniProt Q8TEL6 = molecular target: T5, UniProt Q8TEL6 (Homo sapiens, UniProt Q8TEL6)
T5 construct: 200 μL of lysate containing 5 mg/ml proteome was treated with 2 μL of 100× compound stock; endogenous in cells
T5 sequence (Q8TEL6 1-797): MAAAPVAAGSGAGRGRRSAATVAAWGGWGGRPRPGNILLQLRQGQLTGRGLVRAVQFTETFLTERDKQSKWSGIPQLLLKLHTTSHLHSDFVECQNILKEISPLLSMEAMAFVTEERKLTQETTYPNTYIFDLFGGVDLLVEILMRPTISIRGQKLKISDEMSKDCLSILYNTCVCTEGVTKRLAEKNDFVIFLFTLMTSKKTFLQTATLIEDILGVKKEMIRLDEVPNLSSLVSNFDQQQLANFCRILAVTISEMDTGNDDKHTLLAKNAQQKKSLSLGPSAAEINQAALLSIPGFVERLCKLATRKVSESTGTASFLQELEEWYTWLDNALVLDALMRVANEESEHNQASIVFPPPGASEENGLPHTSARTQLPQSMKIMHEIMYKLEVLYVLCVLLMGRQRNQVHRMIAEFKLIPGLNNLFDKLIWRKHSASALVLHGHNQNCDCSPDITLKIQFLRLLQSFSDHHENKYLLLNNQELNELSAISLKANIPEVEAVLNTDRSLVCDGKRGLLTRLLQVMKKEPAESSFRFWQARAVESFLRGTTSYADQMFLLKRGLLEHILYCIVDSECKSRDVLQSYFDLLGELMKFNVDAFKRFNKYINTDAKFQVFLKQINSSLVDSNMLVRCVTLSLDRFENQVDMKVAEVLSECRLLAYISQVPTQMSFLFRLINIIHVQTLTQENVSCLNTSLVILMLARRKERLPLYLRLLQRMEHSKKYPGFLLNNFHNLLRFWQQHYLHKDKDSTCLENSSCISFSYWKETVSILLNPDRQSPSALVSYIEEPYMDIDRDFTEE
Excerpt: as §1

UniProt Q96DX4 = molecular target: T6, UniProt Q96DX4 (Homo sapiens, UniProt Q96DX4); conditions: read-out: percent_inhibition
T6 construct: 200 μL of lysate containing 5 mg/ml proteome was treated with 2 μL of 100× compound stock; endogenous in cells
T6 sequence (Q96DX4 17-576, change not shown): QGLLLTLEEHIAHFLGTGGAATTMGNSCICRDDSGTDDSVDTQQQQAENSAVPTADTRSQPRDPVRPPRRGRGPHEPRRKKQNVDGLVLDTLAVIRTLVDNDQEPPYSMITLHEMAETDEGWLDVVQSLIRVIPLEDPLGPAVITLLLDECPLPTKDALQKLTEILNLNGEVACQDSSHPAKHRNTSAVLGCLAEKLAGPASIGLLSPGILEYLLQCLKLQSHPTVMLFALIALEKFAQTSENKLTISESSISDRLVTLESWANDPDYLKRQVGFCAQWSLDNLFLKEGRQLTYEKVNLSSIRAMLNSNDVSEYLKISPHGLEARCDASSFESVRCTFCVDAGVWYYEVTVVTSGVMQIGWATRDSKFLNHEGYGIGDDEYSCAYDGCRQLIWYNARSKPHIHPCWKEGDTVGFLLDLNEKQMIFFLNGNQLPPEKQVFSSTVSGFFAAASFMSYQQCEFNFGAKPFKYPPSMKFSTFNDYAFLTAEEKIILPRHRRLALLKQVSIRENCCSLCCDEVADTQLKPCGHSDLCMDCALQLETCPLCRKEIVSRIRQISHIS
Excerpt: as §1

UniProt Q9BWF2 = molecular target: T7, UniProt Q9BWF2 (Homo sapiens, UniProt Q9BWF2)
T7 construct: 200 μL of lysate containing 5 mg/ml proteome was treated with 2 μL of 100× compound stock; endogenous in cells
T7 sequence (Q9BWF2 1-469): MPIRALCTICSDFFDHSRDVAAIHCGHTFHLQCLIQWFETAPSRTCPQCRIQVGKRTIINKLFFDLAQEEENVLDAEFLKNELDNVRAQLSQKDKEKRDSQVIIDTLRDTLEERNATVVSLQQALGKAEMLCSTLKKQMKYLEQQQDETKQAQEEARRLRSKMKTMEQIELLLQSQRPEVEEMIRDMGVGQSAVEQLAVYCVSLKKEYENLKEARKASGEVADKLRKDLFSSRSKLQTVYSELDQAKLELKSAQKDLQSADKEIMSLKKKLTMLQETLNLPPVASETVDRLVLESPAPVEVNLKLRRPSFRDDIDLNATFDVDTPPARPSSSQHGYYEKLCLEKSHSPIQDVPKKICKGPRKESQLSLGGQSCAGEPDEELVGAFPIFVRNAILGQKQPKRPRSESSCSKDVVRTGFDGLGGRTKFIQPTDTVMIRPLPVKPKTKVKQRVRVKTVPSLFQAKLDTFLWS
Excerpt: as §1

UniProt Q9H0A6 = molecular target: T8, UniProt Q9H0A6 (Homo sapiens, UniProt Q9H0A6)
T8 construct: 200 μL of lysate containing 5 mg/ml proteome was treated with 2 μL of 100× compound stock; endogenous in cells
T8 sequence (Q9H0A6 whole entry, change not shown): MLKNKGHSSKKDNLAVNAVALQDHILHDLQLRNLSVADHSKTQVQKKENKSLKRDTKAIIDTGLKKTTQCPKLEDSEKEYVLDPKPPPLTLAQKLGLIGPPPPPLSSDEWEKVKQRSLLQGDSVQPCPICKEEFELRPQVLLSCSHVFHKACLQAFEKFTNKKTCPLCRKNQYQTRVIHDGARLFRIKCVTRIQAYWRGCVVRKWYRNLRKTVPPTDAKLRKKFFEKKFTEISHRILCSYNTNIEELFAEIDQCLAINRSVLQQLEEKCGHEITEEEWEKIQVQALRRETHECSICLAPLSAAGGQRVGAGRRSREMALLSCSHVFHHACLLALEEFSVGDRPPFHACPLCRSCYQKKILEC
Excerpt: as §1

UniProt Q9H992 = molecular target: T9, UniProt Q9H992 (Homo sapiens, UniProt Q9H992)
T9 construct: Cells were resuspended in cold PBS on ice and sonicated with a probe sonicator to achieve lysis; endogenous in cells
T9 sequence (Q9H992 whole entry, change not shown): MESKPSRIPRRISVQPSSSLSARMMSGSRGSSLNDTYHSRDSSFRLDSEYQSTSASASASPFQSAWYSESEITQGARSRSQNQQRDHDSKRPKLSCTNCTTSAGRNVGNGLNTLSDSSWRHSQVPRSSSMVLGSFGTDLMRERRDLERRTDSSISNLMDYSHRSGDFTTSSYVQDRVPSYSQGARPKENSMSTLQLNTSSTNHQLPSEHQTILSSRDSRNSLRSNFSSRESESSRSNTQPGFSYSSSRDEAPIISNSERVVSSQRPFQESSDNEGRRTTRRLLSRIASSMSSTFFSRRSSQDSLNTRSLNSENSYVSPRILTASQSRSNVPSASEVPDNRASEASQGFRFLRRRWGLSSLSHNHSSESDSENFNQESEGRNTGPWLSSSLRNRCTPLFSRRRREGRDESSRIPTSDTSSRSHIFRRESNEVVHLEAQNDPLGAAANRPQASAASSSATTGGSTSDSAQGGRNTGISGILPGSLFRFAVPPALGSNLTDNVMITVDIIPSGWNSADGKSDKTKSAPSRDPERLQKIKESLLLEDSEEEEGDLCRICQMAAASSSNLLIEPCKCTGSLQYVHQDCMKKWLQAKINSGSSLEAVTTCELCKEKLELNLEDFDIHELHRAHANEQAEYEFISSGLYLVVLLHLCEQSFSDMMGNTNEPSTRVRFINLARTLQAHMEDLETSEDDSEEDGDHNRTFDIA
Excerpt: as §1

UniProt Q9BVG3 = molecular target: T10, UniProt Q9BVG3 (Homo sapiens, UniProt Q9BVG3)
T10 construct: 200 μL of lysate containing 5 mg/ml proteome was treated with 2 μL of 100× compound stock; endogenous in cells
T10 sequence (Q9BVG3 whole entry, change not shown): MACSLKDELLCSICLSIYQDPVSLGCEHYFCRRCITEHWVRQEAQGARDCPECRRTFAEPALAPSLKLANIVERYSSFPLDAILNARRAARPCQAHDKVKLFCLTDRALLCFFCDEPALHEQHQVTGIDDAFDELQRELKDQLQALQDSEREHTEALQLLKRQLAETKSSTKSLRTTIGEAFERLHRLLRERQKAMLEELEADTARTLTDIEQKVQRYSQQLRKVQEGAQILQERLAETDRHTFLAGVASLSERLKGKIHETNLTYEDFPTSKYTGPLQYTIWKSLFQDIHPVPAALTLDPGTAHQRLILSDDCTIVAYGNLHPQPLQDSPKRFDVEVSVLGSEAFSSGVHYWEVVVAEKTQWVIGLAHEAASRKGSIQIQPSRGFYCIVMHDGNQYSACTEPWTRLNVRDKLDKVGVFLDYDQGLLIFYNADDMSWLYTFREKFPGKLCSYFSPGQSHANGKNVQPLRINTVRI
Excerpt: as §1

[1] = read-out: KB05_100 uM_percent_inhibition
[2] = 500 uM, read-out: percent_inhibition
[3] = 500 uM, read-out: KB05_500 uM_percent_inhibition
[4] = read-out: KB02_100 uM_percent_inhibition
[5] = 100 uM, read-out: KB02_100 uM_percent_inhibition

inhibition at 100 µM (UniProt O60683; [1]): 37%
inhibition at 100 µM (UniProt O94972; [1]): 18%
inhibition at 100 µM (UniProt Q6IQ16; read-out: percent_inhibition): 20%
percent_inhibition (UniProt Q6IQ16; 500 uM): 57%
inhibition at 500 µM (UniProt Q6IQ16; [2]): 44%
KB05_100 uM_percent_inhibition (UniProt Q6ZMU5; 100 uM): 8%
inhibition at 100 µM (UniProt Q6ZMU5; [1]): 6%
KB05_500 uM_percent_inhibition (UniProt Q8TEL6; 500 uM): 61%
inhibition at 500 µM (UniProt Q8TEL6; [3]): 77%
inhibition at 500 µM (UniProt Q96DX4): 24%
KB05_500 uM_percent_inhibition (UniProt Q9BWF2; 500 uM): 29%
inhibition at 500 µM (UniProt Q9BWF2; [3]): 22%
percent_inhibition (UniProt Q9H0A6; 500 uM): 10%
inhibition at 500 µM (UniProt Q9H0A6; [2]): 16%
inhibition at 100 µM (UniProt Q9H992; read-out: percent inhibition): 21%
Structure (SMILES): C=CC(=O)N(c1ccccc1)c1ccc(Br)cc1 [KB05]

Structure (SMILES): O=C(CCl)Nc1cc(C(F)(F)F)cc(C(F)(F)F)c1 [KBO3]
KB03_100 uM_percent_inhibition (UniProt O94972; 100 uM): 36%
KB03_500 uM_percent_inhibition (UniProt Q9BVG3; 500 uM): 59%
percent inhibition (UniProt Q9H992; 100 uM): 82%

Structure (SMILES): COc1ccc2c(c1)CCCN2C(=O)CCl [KB02]
inhibition at 100 µM (UniProt O60683; [4]): 51%
inhibition at 100 µM (UniProt Q6IQ16; read-out: percent_inhibition): 16%
inhibition at 100 µM (UniProt Q6ZMU5; [4]): 36%
inhibition at 100 µM (UniProt Q8TEL6; [5]): 1%
inhibition at 500 µM (UniProt Q96DX4): 17%
inhibition at 100 µM (UniProt Q9BVG3; [5]): 1%
inhibition at 100 µM (UniProt Q9BWF2; [5]): 10%
KB02_500 uM_percent_inhibition (UniProt Q9BWF2; 500 uM): 52%
inhibition at 500 µM (UniProt Q9BWF2; 500 uM, read-out: KB02_500 uM_percent_inhibition): 36%
inhibition at 100 µM (UniProt Q9H0A6; 100 uM, read-out: percent_inhibition): 44%
inhibition at 500 µM (UniProt Q9H0A6; [2]): 42%
